# Laboratory results as given in patent US8367714B2, “Cannabinoid receptor targeted agent” (Vanderbilt University, priority 2007, dated 2013).
# Legend:
# CB2 receptor [1] = target: CB2 receptor (Homo sapiens, UniProt P34972); conditions: cited from earlier work
# CB2 receptor [2] = target: T1, CB2 receptor (Mus musculus, UniProt P47936); assay: Fluorescence imaging of live DBT cells (2D4 CB2-expressing clone and wild type) and competition study; format: cell-based; conditions: 5 μM, control for non-specific binding due to the dye (FIG. 2)
# T1 construct: expressed in transfected cells; host or cells: DBT mouse astrocytoma cells, 2D4 clone; wild-type DBT cells lack CB2
# T1 sequence (P47936 whole entry): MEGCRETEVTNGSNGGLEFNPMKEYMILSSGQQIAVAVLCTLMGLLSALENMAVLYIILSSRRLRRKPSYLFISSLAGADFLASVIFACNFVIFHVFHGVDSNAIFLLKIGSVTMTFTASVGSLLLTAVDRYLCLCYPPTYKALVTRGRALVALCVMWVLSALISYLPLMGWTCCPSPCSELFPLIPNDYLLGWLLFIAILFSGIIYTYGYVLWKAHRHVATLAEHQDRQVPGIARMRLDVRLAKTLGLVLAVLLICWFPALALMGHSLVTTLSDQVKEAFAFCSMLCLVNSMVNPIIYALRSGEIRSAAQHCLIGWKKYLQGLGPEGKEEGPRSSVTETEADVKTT
# From the text: To test whether NIRmbc94 reliably binds to the CB2 receptor, we already had in place a system wherein the receptor was both absent and present.
# Chain of CB2 receptor (Homo sapiens, UniProt P34972) (P34972 whole entry): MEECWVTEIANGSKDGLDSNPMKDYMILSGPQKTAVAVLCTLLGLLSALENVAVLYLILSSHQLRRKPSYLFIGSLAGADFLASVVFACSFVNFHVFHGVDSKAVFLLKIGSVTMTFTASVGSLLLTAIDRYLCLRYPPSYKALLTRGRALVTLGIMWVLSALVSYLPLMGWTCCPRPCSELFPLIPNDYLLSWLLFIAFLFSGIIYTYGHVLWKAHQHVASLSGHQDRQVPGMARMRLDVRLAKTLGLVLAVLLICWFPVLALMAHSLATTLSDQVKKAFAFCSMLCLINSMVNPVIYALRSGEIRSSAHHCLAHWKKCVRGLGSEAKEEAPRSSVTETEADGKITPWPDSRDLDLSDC
Compound,CB2/CB1 affinity ratio (CB2 receptor [1]),fluorescence of cells dosed with free dye (CB2 receptor [2])
COc1ccc(C(=O)c2c(C)n(CCN3CCOCC3)c3cc(I)ccc23)cc1 [AM630],165,–
CC1(C)C(=CC=C2CCCC(C=CC3=[N+](CCCCCC(=O)[O-])c4ccc(S(=O)(=O)[O-])cc4C3(C)C)=C2Oc2ccc(S(=O)(=O)[O-])cc2)N(CCCCS(=O)(=O)[O-])c2ccc(S(=O)(=O)[O-])cc21.[Na+].[Na+].[Na+].[Na+] [IRDye™ 800CW acid],–,does not produce significant fluorescence
SR144528,> 700,–
